Here are results for four molecules from patent US9707272B2, “Method for the treatment of acne by administering IL-1β antibody” (UNIVERSITAT ZURICH, priority 2011, dated 2017).

In assay [1] the test system is IL-1β secretion from human monocytes. Description: IL-1β secretion (ELISA) and maturation (western blot) from human monocytes exposed to P. acnes or inflammasome activators. The assay is classed as cell-based. The conditions noted are these: upLPS-primed human monocytes, P. acnes MOI=100, 6 h; Glibenclamide or KCl 65 mM added one hour prior, FIG. 3f. On the procedure: For Western blotting cell culture supernatants were precipitated by addition of 0.25 volumes of trichloroacetic acid (100% w/v), 10 min incubation on ice and centrifugation for 5 min at 14,000 g. Protein pellet was washed twice with ice-cold acetone, centrifuged as described above and dried at 70° C. Cells were lysed with buffer (10 mM Tris pH 7.5, 1% NP-40, 150 mM NaCl, 5 mM EDTA,) containing a protease inhibitor cocktail. Proteins were separated on a NuPAGE gel in accordance with the manufacturer's protocol and transferred to a Hybond-C-Extra membrane by electroblotting. […] Appropriate HRP-conjugated secondary antibodies were used and proteins were detected using ECL reagent. […]
Human monocytes were primed with upLPS and infected with P. acnes (MOI=100) or stimulated with MSU crystals ([…]) in the presence of vehicle (DMSO) or pan-caspase inhibitor (Z-VAD-fmk, […]) for 24 h (FIG. 2a). IL-1β secretion was determined by ELISA and mature IL-1β release (IL-1β p17) by western blot. […]
THP1 cells were treated with vehicle (DMSO) or cytochalasin D (Cyt. D, […]) for one hour and then incubated with CFSE-labeled P. acnes (MOI=100) for 4 h or left untreated (FIG. 3a). Bacteria uptake was analyzed by FACS. […] IL-1β (FIG. 3f) and TNFα (FIG. 3g) release were determined after 6 h by ELISA. […]
(In an ELISA, binding on a coated surface is turned into a signal by an enzyme label.)

Another assay concerns C57BL/6 WT mice. Briefly: Intradermal P. acnes ear inflammation model in WT mice. Type of assay: in vivo, mouse. The conditions noted are these: for ear swelling: intradermal P. acnes 20×10^6 CFU, 24 h, i.p. IL-1Ra 150 mg/kg three times at 8 h intervals or single i.p. anti-IL1β antibody, FIG. 4a; for subcutaneous neutrophil infiltration: intradermal P. acnes, histology (HE), i.p. IL-1Ra or anti-IL1β antibody, FIG. 4d. On the procedure: (§1) C57BL/6 mice received three intraperitoneal (i.p.) injections of IL-1 receptor antagonist (IL-1Ra, Anakinra, 150 mg/kg) or PBS at 8 h intervals. One hour after first i.p. injection of IL-1Ra mice received intradermal injections of P. acnes or PBS. TNFα inhibitor (Etanercept) and anti-IL-1β antibody treated mice (Canakinumab, […]) C57BL/6 mice received i.p. injection 24 h before an intradermal injection of P. acnes or PBS. To make bone marrow chimeras indicated mice were lethally irradiated (10 Gy) and subsequently transplanted with indicated bone marrow. After bone marrow reconstitution (8 weeks later) mice were interdermally injected with P. acnes or PBS.
(§2) The ear thickness was measured using a micro caliper before and 24 h after bacterial injection. The percentage of ear thickness was calculated by comparing the ear thickness before and 24 hours after injection.
(§3) WT mice were injected intradermally with P. acnes (20×10^6 CFU/[…] in PBS, left ear) or with an equal amount of PBS (right ear) (FIG. 4a). Mice were treated with vehicle (n=11) or three intraperitoneal injections of IL-1Ra (Anakinra, 150 mg/kg, n=13) at the 8 h intervals or a single i.p. injection of anti-IL1β antibody ([…]) one hour prior to P. acnes or PBS challenge. The ear swelling as measured 24 hrs later is presented. ASC^−/− mice were challenged the same way with P. acnes. The resulting ear swelling (FIG. 4b) and pro- and mature-IL1β in ear extracts (FIG. 4c) are presented. […] WT mice reconstituted with WT (n=8-10), ASC^−/− (n=12) or NLRP3^−/− (n=8) bone marrow were challenged with P. acnes or PBS as described above. The resulting swelling (FIG. 4e) and histology of the infected ear (FIG. 4f) are presented. TLR2^−/− (n=10) were intradermally injected with P. acnes or PBS one hour after treatment with IL-1Ra (n=10) or anti-IL-1β antibody (n=9) as described above. The resulting ear swelling (FIG. 4g) and histology (FIG. 4i) are presented.

Another assay relates to TLR2−/− mice. Briefly: Intradermal P. acnes ear inflammation model in TLR2-deficient mice. The assay is classed as in vivo, mouse. The conditions noted are these: treatment with IL-1Ra or anti-IL-1β antibody; for development of cutaneous inflammation: histology, FIG. 4i; for development of ear swelling: FIG. 4g. The method, then:
as §1, §2, §3

For `[Cl-].[K+]` [KCl], in assay [1], the IL-1β release entry is recorded as “significant reduction”.
Same read-out and setting: under `COc1ccc(Cl)cc1C(=O)NCCc1ccc(S(=O)(=O)NC(=O)NC2CCCCC2)cc1` [glibenclamide, 5-Chloro-N-[2-[4-(cyclohexylcarbamoylsulfamoyl)phenyl]ethyl]-2-methoxy-benzamide] stands “significant reduction”.
For Anakinra [IL-1Ra], in the assay on C57BL/6 WT mice, the ear swelling entry was “significant reduction” and the subcutaneous neutrophil infiltration entry is on record as “significant reduction”. Further, the subcutaneous neutrophil infiltration entry with C57BL/6 WT mice (listed as IL-1 receptor antagonist) was “selective blockade”. Besides, in the assay with TLR2−/− mice, the “development of cutaneous inflammation” value is “blocked” and the “development of ear swelling” value is given as “blocked”.

B1: Canakinumab (antibody, V domains shown)
VH: QVQLVESGGGVVQPGRSLRLSCAASGFTFSVYGMNWVRQAPGKGLEWVAIIWYDGDNQYYADSVKGRFTISRDNSKNTLYLQMNGLRAEDTAVYYCARDLRTGPFDYWGQGTLVTVSS
VL: EIVLTQSPDFQSVTPKEKVTITCRASQSIGSSLHWYQQKPDQSPKLLIKYASQSFSGVPSRFSGSGSGTDFTLTINSLEAEDAAAYYCHQSSSLPFTFGPGTKVDIK
modifications: antibody fragment
notes: Id; No. 1 and 2
As for B1, in the assay on C57BL/6 WT mice, the ear swelling entry is given as “significant reduction” and the subcutaneous neutrophil infiltration entry is on record as “significant reduction”. Further, in the assay on C57BL/6 WT mice (listed as monoclonal anti-IL1β antibody), the subcutaneous neutrophil infiltration entry is “selective blockade”. In the assay on TLR2−/− mice, the “development of cutaneous inflammation” value is listed as “blocked” and the “development of ear swelling” value is listed as “blocked”.
